# Patent US20080248076A1, “ANTIMICROBIAL RUBBER BANDS” (priority 2007, published 2008)
# Values joined by “and” are separate entries in the source; they are usually repeats but may differ in a detail not shown here. Identical values can stand only once.
# What was measured:
# [1] = system: all of the organisms tested (Escherichia coli, Staphylococcus aureus, Pseudomonas aeruginosa, Pasteurella multocida); experiment: Growth Inhibitor Test, overall conclusion; assay type: cell-based; conditions: versus sodium hypochlorite at 100 ppm disinfection concentration
# Source text: (§1) Test Scope: The Growth Inhibitor Test was used to determine the toxicity of a rubber band containing zinc pyrithione. Any presence of toxic residues in the test material (rubber band) will inhibit bacterial growth in the agar medium. A zone of inhibition or no growth of test organism around the test material indicates the presence of toxic residues in the test material. The intensity of inhibition is indicative of the concentration of the toxic agent.
# (§2) Test Objective: Four (4) test organisms were used in this assay to determine toxicity. Each organism was suspended in specific agar medium, incubated at 35° C. for 48 hours, and then read to determine growth or no growth of test organism. Each test organism was grown individually in a Petri plate and the test material was planted unto the agar plate to determine the outcome. If no toxic residues were present in the test material, then the test bacteria grew around and under the test medium producing a “lawn effect.” If inhibitory substances were present in the test material, it would diffuse into the agar medium and prevent the growth of bacterial in the medium. The larger the zone of inhibition, the higher the concentration of toxic substances.
# Test Organisms: The following four (4) organisms were employed: Escherichia coli, Staphylococcus aureus, Pseudomonas aeruginosa, and Pasteurella multocida. […]
# Escherichia coli = experiment: Growth Inhibitor Test (zone of inhibition / kill zone on agar); assay type: cell-based; conditions: E. coli, Standard Methods Agar, 48 hours at 32.0° C; heading says test organism died, assay invalid; Sodium Hypochlorite @ 100 ppm on paper disc
# Source text: as §1, §2
# (§3) Test Organisms: The following four (4) organisms were employed: Escherichia coli, Staphylococcus aureus, Pseudomonas aeruginosa, and Pasteurella multocida. Each test organism's concentration was estimated to be 100,000 cfu to 1,000,000 cfu per milliliter.
# (§4) Materials used included: 1. Baird Parker Agar for Staphylococcus aureus; 2. Standard Methods Agar for E. coli and Pseudomonas aeruginosa; 3. Tryptic Soy Agar for Pasteurella multocida; 4. 100 ppm chlorinated water to serve as a positive control; 5. Distilled water to serve as the negative control; 6. Quebec Colony Counter; 7. Incubator at 32.0 C; 8. Petri plates (85 mm diameter); 9. Vernier calibrators; 10.
# Pasteurella multocida = experiment: as above; assay type: cell-based; conditions: Tryptic Soy Agar, 48 hours at 32.0° C, rubber with 1000 ppm zinc pyrithione, Sodium Hypochlorite @ 100 ppm on paper disc
# Source text: as §1, §2, §3, §4
# Pseudomonas aeruginosa [2] = experiment: as above; assay type: cell-based; conditions: Standard Methods Agar, 48 hours at 32.0° C, rubber with 1000 ppm zinc pyrithione, Sodium Hypochlorite @ 100 ppm on paper disc
# Source text: as §1, §2, §3, §4
# Staphylococcus aureus = experiment: as above; assay type: cell-based; conditions: Baird Parker Agar, 48 hours at 32.0° C, rubber with 1000 ppm zinc pyrithione, Sodium Hypochlorite @ 100 ppm on paper disc
# Source text: as §1, §2, §3, §4
# Pseudomonas aeruginosa [3] = conditions: it has been reported; cited from earlier work
structure (smiles),measurement,setting,value
"[O-][n+]1ccccc1[S-].[O-][n+]1ccccc1[S-].[Zn+2] [zinc pyrithione, zinc 2-pyridinethiol-n-oxide]",toxicity compared with sodium hypochlorite (similar kill zones),[1],equal to the potency of sodium hypochlorite at 100 ppm
OCl [Sodium Hypochlorite],zone of inhibition or kill zone,Escherichia coli,1.6 cm and 1.4 cm
same,zone of inhibition or kill zone,Pasteurella multocida,3.5 cm and 3.2 cm
same,kill zone,Pseudomonas aeruginosa [2],3.1 cm and 3.0 cm
same,zone of inhibition or kill zone,Staphylococcus aureus,3.0 cm and 2.5 cm
Oc1cc(Cl)ccc1Oc1ccc(Cl)cc1Cl [triclosan],efficacy against Pseudomonas aeruginosa,Pseudomonas aeruginosa [3],little or no efficacy
